Data taken from paper PMC3226828 (Journal of medicinal chemistry, 2011).

Tests used:
[1] = IV cassette pharmacokinetics in rhesus monkey; details: in vivo
[2] = rat in vivo pharmacokinetics, IV and PO; details: for clearance: CL; for clearance / CL: IV 1 mg/kg, hydrochloride, 10% EtOH, 80% PEG-400, 10% saline
[3] = IV cassette pharmacokinetics in beagle dog; details: in vivo
[4] = previously reported tool compounds; cited from earlier work
[5] = disclosed mGlu4 PAMs; cited from earlier work
[6] = previously reported tool compounds; cited from earlier work; remark: listed apart in the source
mGlu1,2,3 = details: 10 point concentration-response prior to EC20 agonist
[7] = tested on: haloperidol-induced catalepsy; experiment: reversal of haloperidol-induced catalepsy; type: in vivo; details: rat, p.o., haloperidol 0.75 mg/kg, 30 min, vs vehicle control
[8] = tested on: 68 GPCRs, ion channels and transporters; experiment: Ricerca Lead Profiling Screen; type: binding; details: 10 µM; all 68 assays

O=C(Nc1ccc(N2C(=O)CC(c3ccccc3)C2=O)c(Cl)c1)c1ccccn1 (centres unmarked) [15k, N-(3-Chloro-4-(2,5-dioxo-3-phenylpyrrolidin-1-yl)phenyl)picolinamide]
clearance [1]: 3 mL/min/kg | MRT ([2]; in vivo, iv, 1 mg/kg): 1.82 h | clearance ([2]; in vivo, iv, 1 mg/kg): 5.4 mL/min/kg | clearance [3]: 7 mL/min/kg

O=C(Nc1ccc(N2C(=O)CC3(CCCCC3)C2=O)c(Cl)c1)c1ccccn1 [15j, N-(3-Chloro-4-(1,3-dioxo-2-azaspiro[4.5]decan-2-yl)phenyl)picolinamide]
CL ([2]; 1 mg/kg): 48.3 mL/min/kg | MRT ([2]; in vivo, iv, 1 mg/kg): 0.953 h | clearance ([2]; in vivo, iv, 1 mg/kg): 48 mL/min/kg

COc1cc(NC(=O)c2ccccn2)ccc1Cl [compound 2]
rat CLHEP [4]: 65.5 mL/min/kg | CNS penetration when dosed systemically [5]: CNS penetrant | rPPB (%fu) [6]: 2.4 %fu

O=C(Nc1ccc(N2C(=O)[C@@H]3[C@H](C2=O)[C@@H]2C=C[C@H]3C2)c(Cl)c1)c1ccccn1 [15f]
CL ([2]; 1 mg/kg): 36.9 mL/min/kg | MRT ([2]; in vivo, iv, 1 mg/kg): 8.22 h | Vd ([2]; in vivo, iv, 1 mg/kg): 18 L/kg | half-life ([2]; in vivo, iv, 1 mg/kg): 0.673 h | clearance ([2]; in vivo, iv, 1 mg/kg): 37 mL/min/kg | AUC(0-t) ([2]; in vivo, po, 10 mg/kg): 4350 ng·h/mL | activity at mGlu 1, 2, 3 (mGlu1,2,3): inactive | reversal of haloperidol-induced catalepsy [7]: produced a reversal of haloperidol-induced catalepsy | reversal of haloperidol-induced catalepsy ([7]; listed as ML182): orally active | inhibition of radioligand binding [8]: ≤ 50%
